Like-named read-outs stand apart in the source and are kept apart here.
Key:
[1] = Mouse PBPK model simulations and model parameters
Description: This model thus aims to elucidate the implications of drug pharmacokinetics and mechanisms of distribution, ultimately providing a modeling base for extrapolation of simulated concentration profiles to clinical settings. The primary drivers of vinca disposition are fraction unbound drug to plasma proteins, intercellular tubulin binding, metabolism, and ABCB1‐mediated transport. With exception to the brain, tissue compartments are defined by a well‐stirred, flow‐limited model in which the concentration of drug leaving the compartment is equal to the unbound drug concentration within the tissue. The blood–brain barrier (BBB) is distinctive as the tight junctions and prolific expression of efflux transporter proteins provide a highly restrictive barrier to many lipophilic molecules. The brain is thus defined by a permeability‐limited model dictated by a modification of Fick's Law of diffusion in which the permeability‐surface area product constitutes the tissue permeation coefficient, the capillary surface area permitting diffusion, and the thickness of the cellular membrane.[32] ABCB1 is highly expressed at the blood–brain barrier as well as in the liver, gut, and kidneys, facilitating drug excretion.[14], [15]
Physiological parameters for tissue‐specific percent body weight and cardiac output for mouse, canine, and human were sourced from Brown et al.[27] and presented in Table 1. All tissue densities were approximated to be 1 kg/L. Cardiac output for respected species was estimated using a previously derived allometric scaling relationship for unanesthetized mice.[33] […] The rate of change in the amount of drug within generic, non‐eliminating compartments is governed by the following mass balance equation: (1) dAC/dt=VC×dCC/dt=QC×CA−CVT where AC is the amount of drug in the tissue, VC is the volume of the tissue (assuming static volume), CC is the concentration within the tissue, QC is the tissue perfusion rate, CA is the arterial blood drug concentration, and CVT is the venous blood drug concentration.
Tissue‐specific‐binding capacities, BC , were obtained from studies where tubulin concentrations were determined from tubulin‐binding capacities for colchicine[12] and are reported in Table 2. […] Relative tissue tubulin‐binding capacities were thus assumed to be equivalent for the mouse, dog, and human PBPK model developed herein. […] Partition coefficients, PC , for respective tissues were determined by performing parameter optimization in MATLAB's tool, SimBiology, using a nonlinear least squares regression estimation method from the optimization toolbox. The statistical modeling method fit pooled Mdr1a/b (−/−) tissue data generating one set of partition parameters for all tissues which are reported in Table 1.
The transfer of drugs at the BBB is unique as the mass transfer out of the vascular space surrounding the brain tissue is hindered by a permeability barrier.

ABCB1 = assay: ABCB1‐driven transport kinetics fit to wild‐type mouse brain tissue PK data
Description: The rate of change in the amount of drug in tissues with ABCB1 expression is as follows: (3) dAT/dt=QC×CA−CVT−FABCB1,T×Vmax,ABCB1×Cv/Km+Cv In which ABCB1‐mediated efflux of drug is characterized by Michaelis–Menten saturable kinetics, where FABCB1,T is the scaling factor for the relative expression of ABCB1 transport protein in relevant tissues, Vmax,ABCB1 is the maximum velocity of ABCB1 transport out of the tissue compartment, and Km is the associated Michaelis–Menten constant. Scaling factors, FABCB1,T , were acquired from Systems Pharmacology for ABCB1 relative tissue expression as previously reported.[36]
The transfer of drugs at the BBB is unique as the mass transfer out of the vascular space surrounding the brain tissue is hindered by a permeability barrier. […] Coupling the ABCB1 transport equations as expressed above with permeability‐limited modeling equations from Choi et al.,[23] the following equations are proposed where Equation ( 4 ) describes the amount of drug within the brain tissue and Equation ( 5 ) describes the amount of drug in the vascular space surrounding the tissue: (4) VCNS*dCCNS,T/dt=PSA×CA−CCNS,V−sfABCB1,CNS×VCNS×VMAXABCB1×CCNS,V/KMABCB1+CCNS,V (5) VBB*dCBB/dt=QCNS*CA−CV−PSA×CA−CV,CNA+sfCNS×VCNS×VMAXABCB1×CCNS,V/KMABCB1+CCNS,V where VCNS is the volume of the brain tissue, VBB is the volume consisting of brain blood, CCNS,T is the concentration of drug in the brain tissue, PSA is the permeability surface area product, sfABCB1,CNS is the relative ABCB1 expression in brain tissue, and CBB is the concentration of drug in the brain blood. VCNA and VBB were set to 97% and 3% of total brain volume, respectively.[37] […] The parameter optimization method was conducted as described previously with nonlinear least squares regression. […] The corresponding Vmax,ABCB1 value was optimized to in vivo canine PK data. […] Canine model parameter values were thus fit to the patients without concurrent treatment of omeprazole to minimize the influence of potential drug–drug interactions.

[2] = test system: plasma proteins, primarily alpha‐1 acid glycoprotein; details: cited from earlier work
serum proteins = details: cited from earlier work
[3] = Human PBPK model Monte Carlo simulation and model parameters
[4] = mouse model, optimized to mouse mdr1a/b (−/−) data
[5] = optimized to mouse mdr1a/b (−/−) data

## CC[C@]1(O)C[C@@H]2CN(CCc3c([nH]c4ccccc34)[C@@](C(=O)OC)(c3cc4c(cc3OC)N(C)[C@H]3[C@@](O)(C(=O)OC)[C@H](OC(C)=O)[C@]5(CC)C=CCN6CC[C@]43[C@@H]65)C2)C1 [VBL, Vinblastine]
[1]; mdra1a/b (−/−) mouse, optimized to fecal data
  Vmbil (biliary transport Vmax): 23.35 nmol/L/h
[1]; mouse model
  Partition coefficient PCblood: 1.0
[1]; mouse model, bone marrow, optimized to mouse mdr1a/b (−/−) data
  Partition coefficient PCBM: 1.0
[1]; [4]
  Partition coefficient PCCNS: 1.21
  Partition coefficient PCGut: 1.08
  Partition coefficient PCKidney: 3.73
  Partition coefficient PCLiver: 2.26
ABCB1; WT mouse, set equivalent to ABCB1 value
  Vmbil (biliary transport Vmax): 928.8 nmol/L/h
ABCB1; fit to wild‐type mouse brain tissue PK data
  Vmax, ABCB1‐driven transport: 928.8 nM/h
ABCB1; mouse, optimized parameter
  KmABCB1: 6.41 nmol/L
  VmABCB1: 928.8 nmol/L/h
[2]
  percentage of drug bound to plasma proteins: 48–99%
[2]; value used in dog model
  Protein binding (range): 48–99%
[2]; value used in human model
  Protein binding (range): 48–99%
[2]; value used in mouse model
  Protein binding (range): 48–99%
Serum proteins; dog plasma
  bound to serum proteins: ≤ 75%
Serum proteins; value used in dog model
  Protein binding (single value): 75%
Serum proteins; value used in human model
  Protein binding (single value): 75%
Serum proteins; value used in mouse model
  Protein binding (single value): 75%
[3]
  Partition coefficient PCblood: 1.0
[3]; bone marrow, optimized to mouse mdr1a/b (−/−) data
  Partition coefficient PCBM: 1.0
[3]; [5]
  Partition coefficient PCCNS: 1.21
  Partition coefficient PCGut: 1.08
  Partition coefficient PCKidney: 3.73
  Partition coefficient PCLiver: 2.26

Reference: publication PMC9834611 (Pharmacology Research & Perspectives, 2023)
